Several values for one entry are separate records, joined by “and”; a condition that tells them apart may be missing. Equal values may be shown once.
Key:
[1] = system: Sprague-Dawley rats; assay: Clinical chemistry (AST, ALT, CK) in blood plasma of toxicant-treated rats; format: in vivo, rat; details: individual male rats
Procedure: (§1) To follow up on the initial results shown in Example 2, blood samples from 44 individual rats that had been treated with varying doses of CBrCl3, CCl4 (another liver toxicant), or TMPD were evaluated using qPCR of miR-122 and miR-133. In addition, data from histopathology and a panel of standard biomarkers (ALT, AST, CK, skTnI, etc.) were also available for these same individual rats and were used to compare the results from microRNA assays with the standard histopathology and protein biomarkers.
(§2) Animals Male and female Sprague-Dawley rats were obtained from Charles River Laboratories, Inc. (Raleigh, N.C.). The rats were approximately seven to eight weeks of age and weighed from 125 to 325 grams at the start of the study. The animals were acclimated for approximately one week and randomized into treatment and control groups. During the toxicity studies targeting liver, the animals were maintained on a caloric-restricted diet, and fasted overnight prior to necropsy. Doses were different for each model compound tested and were calculated based on animal body weight. For the compounds, routes of administration, dose groups, and time points, see the below compound section.
(§3) Skeletal Muscle Toxicant • 2,3,5,6-tetramethyl-p phenylenediamine (TMPD) • Doses: 2, 4 mg/kg bid • Dosing: 0.9% NaCl by subcutaneous injection • Animals: Sprague Dawley Male Rats • Time Points: TMPD Plasma (Day 2) and Controls (5 samples per group, […] pooled=500 μl total).
(§4) Liver Toxicant • Trichlorobromomethane (CCl3Br) • Doses: 0.03, 0.1 ml/kg • Dosing: 100% liquid paraffin by oral gavage • Animals: Sprague Dawley Male Rats • Time Point: CCl3Br Plasma (Days 2 & 4) and Controls (4 controls, 3 samples per group, 100 μl each) • Carbon Tetrachloride (CCl4) • Doses: 0.03, 0.1, 0.3 ml/kg • Dosing: 100% liquid paraffin by oral gavage • Animals: Sprague Dawley Male Rats • Time Point: CCl4 Plasma (Days 2) and Controls (4 samples per group, 100 μl each)

[2] = system: Sprague-Dawley rats; assay: Pooled sample study: miR-122 in blood plasma of toxicant-treated rats by qPCR; format: in vivo; details: pooled rat plasma (5 samples), cerivastatin 1.0 mg/kg/day oral Day 14, CBrCl3 0.1 ml/kg oral Days 2 & 4, TMPD 6 mg/kg bid s.c. Day 3; for miR-122 Copies / miR-122 Ct Mean: 250 ng total RNA input
Procedure: (§5) To explore the feasibility of detecting miRNA tissue injury biomarkers in plasma, a pilot study was performed in which pooled blood plasma samples from rat toxicology studies were analyzed using a qPCR-based assay (Raymond et at, 2005, RNA 11:1737; WO 2006/081282). The miRNAs miR-122 and miR-133 were chosen for quantification because they are extremely abundant and specific to liver and muscle, respectively (FIG. 1). Stored plasma samples from rats that had previously been treated with a liver damaging agent trichlorobromomethane (CBrCl3) or with one of two muscle damaging agents 2,3,5,6-tetramethyl-p phenylenediamine (TMPD) or cerivastatin) were assayed form miRNA levels using qPCR.
as §2
(§6) Skeletal Muscle Toxicant • 2,3,5,6-tetramethyl-p phenylenediamine (TMPD) • Doses: 6 mg/kg bid • Dosing: 0.9% NaCl by subcutaneous injection • Animals: Sprague Dawley Male Rats • Time Points Day 3, TMPD Plasma (Day 3) and Controls (5 samples, 100 ul each pooled=500 ul total).
(§7) Liver Toxicant • Trichlorbromomethane (CCl3Br) • Doses: 0.1 ml/kg • Dosing: 100% liquid paraffin by oral gavage • Animals: Sprague Dawley Male Rats • Time Point: Day 2, 4 CCl3Br Plasma (Days 2 & 4) and Controls (5 samples, 100 ul each pooled=500 ul total)
(§8) Liver and Muscle Toxicant • Cerivastatin • Doses: 1.0 mg/kg/day • Dosing: 0.5% methylcellulose by oral gavage • Animals: Sprague Dawley Female Rats • Time Point Day 14 Cerivastatin Plasma (Day 14) and Controls (5 samples, 100 ul each pooled=500 μl total)
(§9) Plasma Samples All plasma samples were collected in EDTA tubes at final necropsy from the vena cava. Samples were inverted several times, and centrifuged for 20 minutes at 2,900 RPM at 4° C. Plasma samples were removed and stored at −70° C. Pooled blood plasma samples from rat toxicology studies were analyzed using a qPCR-based assay (Raymond et al, 2005, RNA 11:1737; WO 2006/081282). Control slope and intercept values for miR-122 and miR-133 were calculated from a concentration series of each microRNA added to total yeast RNA and then analyzed using the qPCR assay for each miRNA. The slope and intercept values from the standard curve were used to calculate the amount of each respective miRNA in each sample expressed as the number of miRNA copies per 20 ng of total RNA in each sample. Cycle threshold values (Ct) for each sample were converted to miRNA copy numbers by comparison to standard curves generated using single stranded mature miRNAs and are expressed as copies/20 pg input RNA (approximately equivalent to copies/cell).

[3] = system: Sprague-Dawley rats; assay: Pooled sample study: miR-133 in blood plasma of toxicant-treated rats by qPCR; format: in vivo; details: pooled rat plasma (5 samples), cerivastatin 1.0 mg/kg/day oral Day 14, CBrCl3 0.1 ml/kg oral Days 2 & 4, TMPD 6 mg/kg bid s.c. Day 3; for miR-133 Copies / miR-133 Ct Mean: 250 ng total RNA input
Procedure: as §5, §2, §6, §7, §8, §9

[4] = system: Sprague-Dawley rats; assay: Liver histopathology scores of toxicant-treated rats; format: in vivo, rat; set-up: key to Liver Histopathology Scores: Vacuolation / Liver Histopathology Scores: Necrosis / Liver Histopathology Scores: Degeneration / Liver Histopathology Scores: Inflammation / Liver Histopathology Scores: Mitotic Index: 1 = very slight; 2 = slight or small; 3 = moderate; 4 = marked; 5 = severe tissue injury
Procedure: as §1, §2, §4

[5] = system: Sprague-Dawley rats; assay: Individual sample study: miR-133 in blood plasma of toxicant-treated rats by qPCR; format: in vivo, rat; details: individual male rats
Procedure: as §1, §2, §3, §4
as §9, with “are expressed in Table 4 as copies/20” for “are expressed as copies/20”

[6] = system: Sprague-Dawley rats; assay: Individual sample study: miR-122 in blood plasma of toxicant-treated rats by qPCR; format: in vivo, rat; details: individual male rats
Procedure: as §1, §2, §3, §4
as §9, with “are expressed in Table 4 as copies/20” for “are expressed as copies/20”

[7] = CBrCl3 0.03 mL/kg oral gavage, Day 2, plasma
[8] = CBrCl3 0.03 mL/kg oral gavage, Day 4, plasma
[9] = CBrCl3 0.1 mL/kg oral gavage, Day 4, plasma
[10] = CBrCl3 0.03 mL/kg oral gavage, Day 2, individual male rats
[11] = CBrCl3 0.03 mL/kg oral gavage, Day 4, individual male rats
[12] = CBrCl3 0.1 mL/kg oral gavage, Day 4, individual male rats
[13] = CCl4 0.03 ml/kg oral gavage, Day 2, plasma
[14] = CCl4 0.1 mL/kg oral gavage, Day 2, plasma
[15] = CCl4 0.3 mL/kg oral gavage, Day 2, plasma
[16] = CCl4 0.03 ml/kg oral gavage, Day 2, individual male rats
[17] = CCl4 0.1 mL/kg oral gavage, Day 2, individual male rats
[18] = CCl4 0.3 mL/kg oral gavage, Day 2, individual male rats

SMILES: ClC(Cl)(Cl)Br [CBrCl3, trichlorobromomethane]
- ALT [1, 7]: 142 Unit and 36 Unit (2×)
- AST [1, 7]: 366 Unit and 83 Unit and 93 Unit
- ALT [1, 8]: 34 Unit and 43 Unit and 32 Unit
- AST [1, 8]: 138 Unit and 118 Unit and 108 Unit
- ALT [1, 9]: 1388 Unit and 191 Unit and 223 Unit
- AST [1, 9]: 1543 Unit and 370 Unit and 519 Unit
- miR-122 Copies [2]: 8.8E+08
- miR-122 Ct Mean [2]: 12.6961
- miR-122 Copies/20 pg [2]: 70674.9 Copies/20 pg
- miR-133 Copies [3]: 85617.9
- miR-133 Ct Mean [3]: 29.6296
- miR-133 Copies/20 pg [3]: 6.8 Copies/20 pg
- Liver Histopathology Scores: Degeneration [4, 10]: 2 and 0 and 1
- Liver Histopathology Scores: Inflammation [4, 10]: 1 (2×) and 0
- Liver Histopathology Scores: Mitotic Index [4, 10]: 0
- Liver Histopathology Scores: Necrosis [4, 10]: 1 and 0 (2×)
- Liver Histopathology Scores: Degeneration [4, 11]: 0 and 1 (2×)
- Liver Histopathology Scores: Inflammation [4, 11]: 0
- Liver Histopathology Scores: Mitotic Index [4, 11]: 0
- Liver Histopathology Scores: Necrosis [4, 11]: 0
- Liver Histopathology Scores: Degeneration [4, 12]: 2 and 1 (2×)
- Liver Histopathology Scores: Inflammation [4, 12]: 2
- Liver Histopathology Scores: Mitotic Index [4, 12]: 1 (2×) and 2
- Liver Histopathology Scores: Necrosis [4, 12]: 3 and 1 (2×)
- miR-133 [5, 7]: 0.7 copies/20 pg input RNA and 0.2 copies/20 pg input RNA and 0.4 copies/20 pg input RNA
- miR-133 [5, 8]: 1.2 copies/20 pg input RNA and 2.0 copies/20 pg input RNA and 0.3 copies/20 pg input RNA
- miR-133 [5, 9]: 0.8 copies/20 pg input RNA and 0.4 copies/20 pg input RNA (2×)
- miR-122 [6, 7]: 860.8 copies/20 pg input RNA and 45.1 copies/20 pg input RNA and 47.3 copies/20 pg input RNA
- miR-122 [6, 8]: 90.2 copies/20 pg input RNA and 56.2 copies/20 pg input RNA and 20.5 copies/20 pg input RNA
- miR-122 [6, 9]: 4049.2 copies/20 pg input RNA and 335.5 copies/20 pg input RNA and 304.0 copies/20 pg input RNA

SMILES: ClC(Cl)(Cl)Cl [CCl4, Carbon Tetrachloride]
- ALT [1, 13]: 25 Unit (3×) and 20 Unit
- AST [1, 13]: 92 Unit and 88 Unit and 76 Unit and 84 Unit
- ALT [1, 14]: 25 Unit and 40 Unit (2×) and 41 Unit
- AST [1, 14]: 96 Unit and 116 Unit and 102 Unit and 126 Unit
- ALT [1, 15]: 87 Unit and 77 Unit and 62 Unit and 56 Unit
- AST [1, 15]: 345 Unit and 216 Unit and 157 Unit and 225 Unit
- Liver Histopathology Scores: Degeneration [4, 16]: 0
- Liver Histopathology Scores: Inflammation [4, 16]: 0
- Liver Histopathology Scores: Necrosis [4, 16]: 0
- Liver Histopathology Scores: Vacuolation [4, 16]: 0
- Liver Histopathology Scores: Degeneration [4, 17]: 0 (2×) and 1 (2×)
- Liver Histopathology Scores: Inflammation [4, 17]: 0 (2×) and 2 and 1
- Liver Histopathology Scores: Necrosis [4, 17]: 0 (2×) and 1 (2×)
- Liver Histopathology Scores: Vacuolation [4, 17]: 0 and 1 (3×)
- Liver Histopathology Scores: Degeneration [4, 18]: 2
- Liver Histopathology Scores: Inflammation [4, 18]: 2 (3×) and 1
- Liver Histopathology Scores: Necrosis [4, 18]: 1
- Liver Histopathology Scores: Vacuolation [4, 18]: 0
- miR-133 [5, 13]: 0.3 copies/20 pg input RNA (2×) and 0.5 copies/20 pg input RNA and 1.0 copies/20 pg input RNA
- miR-133 [5, 14]: 0.3 copies/20 pg input RNA (2×) and 0.4 copies/20 pg input RNA (2×)
- miR-133 [5, 15]: 1.4 copies/20 pg input RNA and 0.4 copies/20 pg input RNA and 0.3 copies/20 pg input RNA and 0.1 copies/20 pg input RNA
- miR-122 [6, 13]: 2.4 copies/20 pg input RNA and 5.5 copies/20 pg input RNA and 8.7 copies/20 pg input RNA and 10.0 copies/20 pg input RNA
- miR-122 [6, 14]: 7.9 copies/20 pg input RNA and 107.4 copies/20 pg input RNA and 14.3 copies/20 pg input RNA and 119.4 copies/20 pg input RNA
- miR-122 [6, 15]: 1563.6 copies/20 pg input RNA and 194.3 copies/20 pg input RNA and 191.4 copies/20 pg input RNA and 164.6 copies/20 pg input RNA

SMILES: COCc1c(C(C)C)nc(C(C)C)c(/C=C/[C@@H](O)C[C@@H](O)CC(=O)O)c1-c1ccc(F)cc1 [Cerivastatin]
- miR-122 Copies [2]: 353217
- miR-122 Ct Mean [2]: 24.2231
- miR-122 Copies/20 pg [2]: 28.3 Copies/20 pg
- miR-133 Copies [3]: 7279643
- miR-133 Ct Mean [3]: 23.1065
- miR-133 Copies/20 pg [3]: 582.4 Copies/20 pg

— US20110111976A1, “MICRORNA BIOMARKERS OF TISSUE INJURY” (priority 2008, published 2011)
